Data from patent US6399575B1, “Methods and compositions for targeting compounds to the central nervous system” (Auburn University, priority 1998, dated 2002).
“Also recorded” adds a separate entry of the source.

system: brain tissue; assay: in vivo selection of brain-binding phage-displayed peptides by panning in mice; design: species or system BALB/c mice; details: phage library injected intravenously, 30 min to 1 hour circulation, brain tissue recovered, four rounds
Description: FIG. 1 provides the scheme for selection of tissue specific phage in vivo. In this example, candidate brain-binding peptides were selected by panning in BALB/c mice. In round one of selection, the phage library was injected intravenously. After thirty minutes of circulation, the mice were euthanized by carbon dioxide inhalation, perfused with 60 ml of ice cold PBS via the left ventricle, and brain tissue was recovered from the animals. The tissue was minced into small pieces and rinsed repeated in PBS, followed by homogenization in lysis buffer. The tissue homogenate was then incubated with fresh E coli cells and the phage present allowed to infect and lyse the bacteria. Phage were recovered by polyethylene glycol precipitation of the lysate. In subsequent rounds, the phage purified from brain tissues recovered in the previous round was injected intravenously, and tissue was recovered after thirty to sixty minutes of circulation. After the last round, the phages were plated on a lawn of bacteria and a number of pliage plaques were isolated and the DNA sequenced. Of these, a certain percentage represented the dominant selected clone.
To remove unbound, non-specific phage, from the parenchyma of the tissue, the screening protocol of Example 2 was modified. After intravenous administration, the phage were left in circulation for 1 hour (30 minutes in Example 2) to allow more phage clones with CNS binding affinity to reach their target. CNS tissue samples were then homogenized in TBS buffer instead of the lysis buffer which was used at this step previously. Tissue homogenates were pelleted by centrifugation and the supernatant was discarded. The pellet was washed two more times in TBS to remove unbound phage. The pellet was re-homogenized in lysis buffer and the remainder of the selection protocol was completed as described in Example 2. The following brain specific peptides were determined: […]

| Substance | binding to brain |
| --- | --- |
| GETRAPL [Gly-Glu-Thr-Arg-Ala-Pro-Leu] | binding to brain |
| LFTPPVL [Leu-Phe-Thr-Pro-Pro-Val-Leu, brain specific peptide selected by in vivo phage display] | specific for binding to the brain |
| LPHQNNR [Leu-Pro-His-Gln-Asn-Asn-Arg, brain specific peptide selected by in vivo phage display] | specific for binding to the brain |
| LPLTPLP [Leu-Pro-Leu-Thr-Pro-Leu-Pro, brain specific peptide selected by in vivo phage display] | specific for binding to the brain |
| QPTASLT [Gln-Pro-Thr-Ala-Ser-Leu-Thr, brain specific peptide selected by in vivo phage display] | specific for binding to the brain |
| SSHTISF [Ser-Ser-His-Thr-Ile-Ser-Phe, brain specific peptide selected by in vivo phage display] | specific for binding to the brain |

system: skeletal muscle; assay: not given; details: as described in U.S. Pat. No. 6,329,501; cited from earlier work

| Substance | binding to skeletal muscle |
| --- | --- |
| GETRAPL [Gly-Glu-Thr-Arg-Ala-Pro-Leu] | capable of binding to skeletal muscle; also recorded: also binds skeletal muscle |
